From patent US20240116985A1, “STAPLED PEPTIDES AND METHODS THEREOF” (priority 2020, published 2024)
Read-outs that look alike come from different tables or passages of the source.

Tests used:
[1] = biological target: T1, beta-catenin/TCF4 engagement (Homo sapiens, UniProt P35222); assay: Nano-BRET target engagement assay (B-cat-Halo & TCF4-Luc in HEK293 cells); format: cell-based; conditions: read-out: NanoBRET Abs IC50
T1 construct: expressed in transfected cells; host or cells: HEK293
T1 sequence (P35222 1-781): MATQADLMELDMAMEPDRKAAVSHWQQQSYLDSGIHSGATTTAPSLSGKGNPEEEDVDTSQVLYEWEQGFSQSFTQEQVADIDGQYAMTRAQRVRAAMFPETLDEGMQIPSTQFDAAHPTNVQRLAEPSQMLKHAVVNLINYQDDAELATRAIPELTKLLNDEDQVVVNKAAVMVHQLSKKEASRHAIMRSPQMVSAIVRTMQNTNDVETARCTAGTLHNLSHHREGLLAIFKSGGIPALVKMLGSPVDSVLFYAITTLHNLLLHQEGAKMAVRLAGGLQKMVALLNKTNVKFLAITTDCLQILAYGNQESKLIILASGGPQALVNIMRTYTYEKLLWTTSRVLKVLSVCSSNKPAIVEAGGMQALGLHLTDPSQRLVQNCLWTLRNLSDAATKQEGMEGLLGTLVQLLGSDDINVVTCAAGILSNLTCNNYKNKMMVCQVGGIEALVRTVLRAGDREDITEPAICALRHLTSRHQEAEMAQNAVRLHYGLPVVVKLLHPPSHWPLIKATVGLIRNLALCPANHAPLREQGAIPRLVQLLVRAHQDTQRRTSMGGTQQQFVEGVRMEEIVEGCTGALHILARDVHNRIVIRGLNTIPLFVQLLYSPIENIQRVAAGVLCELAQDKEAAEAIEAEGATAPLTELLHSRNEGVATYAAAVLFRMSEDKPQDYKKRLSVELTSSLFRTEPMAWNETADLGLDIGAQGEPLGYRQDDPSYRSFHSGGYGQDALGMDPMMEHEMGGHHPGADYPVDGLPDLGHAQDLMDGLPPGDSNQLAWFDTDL

[2] = biological target: T2, full-length beta-Catenin (Uniprot ID P35222) (Homo sapiens, UniProt P35222); assay: Fluorescence polarization IC50 (beta-catenin / 5FAM-TCF4 10-53 competition); format: binding; conditions: fluorescence polarization; read-out: beta-Catenin FP IC50
T2 construct: 10 nM full-length beta-Catenin (Uniprot ID P35222)
T2 sequence (P35222 1-781): T1 sequence (P35222 1-781)

| Compound | IC50 [1] | IC50 [2] | IC50 ([1]; absolute IC50) |
| --- | --- | --- | --- |
| CCCC[C@@H]1NC(=O)[C@H](Cc2cccc(C(=O)O)c2)NC(=O)[C@H](CC(=O)O)NC(=O)C2(CCCC=CCCCOC(=O)N3CC[C@@](C(=O)N[C@@H](Cc4ccsc4)C(=O)N[C@@H](Cc4csc5ccccc45)C(=O)N[C@@H](Cc4ccccc4)C(N)=O)(C3)NC(=O)[C@H](CC(C)C)NC(=O)[C@H](Cc3ccccc3)NC(=O)[C@H](C)NC1=O)CCCC=CC[C@]1(CCCN1C(C)=O)C(=O)N[C@@H](CC(=O)O)C(=O)N[C@@H](CC(C)(C)C)C(=O)N2 (stereo partly drawn) [I-1913, Ac-PL3-Asp-Npg-B5-Asp-3COOHF-nLeu-Ala-Phe-Leu-PyrS2-3Thi-BztA-Phe-NH2] | 17500 nM | 119 nM | – |
| CC(=O)N1CCC[C@]12CC=CCCCC1(CCCC=CCCCOC(=O)N3CC[C@@](C(=O)N[C@@H](Cc4ccsc4)C(=O)N[C@@H](Cc4csc5ccccc45)C(=O)N[C@@H](C)C(N)=O)(C3)NC(=O)[C@H](CC(C)C)NC(=O)[C@H](Cc3ccccc3)NC(=O)[C@@H](C)NC(=O)[C@H](C)NC(=O)[C@H](Cc3cccc(C(=O)O)c3)NC(=O)[C@H](CC(=O)O)NC1=O)NC(=O)[C@H](CC(C)(C)C)NC(=O)[C@H](CC(=O)O)NC2=O (stereo partly drawn) [I-2096, Ac-PL3-Asp-Npg-B5-Asp-3COOHF-Ala-dAla-Phe-Leu-PyrS2-3Thi-BztA-Ala-NH2] | > 20000 nM | 79 nM | – |
| CC(=O)N1CCC[C@]12CC=CCCCC1(CCCC=CCCCOC(=O)N3CC[C@@](C(=O)N[C@@H](Cc4ccsc4)C(=O)N[C@@H](Cc4csc5ccccc45)C(=O)N[C@@H](CCC(N)=O)C(N)=O)(C3)NC(=O)[C@H](CC(C)C)NC(=O)[C@H](Cc3ccccc3)NC(=O)C(C)(C)NC(=O)[C@H](C)NC(=O)[C@H](CC(=O)O)NC(=O)[C@H](CC(=O)O)NC1=O)NC(=O)[C@H](CC(C)(C)C)NC(=O)[C@H](CC(=O)O)NC2=O (stereo partly drawn) [I-1178, Ac-PL3-Asp-Npg-B5-Asp-Asp-Ala-Aib-Phe-Leu-PyrS2-3Thi-BztA-Gln-NH2] | – | 54.5 nM | 28800 nM |
| CC(=O)N1CCC[C@]12CCCC[C@@](C)(C(=O)N[C@@H](CC(=O)O)C(=O)N[C@@H](CC(=O)O)C(=O)N[C@@H](C)C(=O)N[C@@H](C)C(=O)N[C@@H](Cc1ccccc1)C(=O)N[C@@H](CC(C)C)C(=O)NC(C)(C)C(=O)N[C@@H](Cc1ccsc1)C(=O)N[C@@H](Cc1csc3ccccc13)C(=O)N[C@@H](CCC(N)=O)C(N)=O)NC(=O)[C@H](CC(C)(C)C)NC(=O)[C@H](CC(=O)O)NC2=O [I-1983, Ac-PL3-Asp-Npg-S3-Asp-Asp-Ala-Ala-Phe-Leu-Aib-3Thi-BztA-Gln-NH2] | > 20000 nM | 186 nM | – |
| CC(=O)N1CCC[C@]12CC=CCCCC1(CCCC=CCCCOC(=O)N3CC[C@@](C(=O)N[C@@H](Cc4ccsc4)C(=O)N[C@@H](Cc4csc5ccccc45)C(=O)N[C@@H](CCC(N)=O)C(N)=O)(C3)NC(=O)[C@H](CC(C)C)NC(=O)[C@H](Cc3ccccc3)NC(=O)[C@H](C)NC(=O)[C@H](C)NC(=O)[C@H](CNCC(=O)O)NC(=O)[C@H](CC(=O)O)NC1=O)NC(=O)[C@H](CC(C)(C)C)NC(=O)[C@H](CC(=O)O)NC2=O (stereo partly drawn) [I-1731, Ac-PL3-Asp-Npg-B5-Asp-GA-Ala-Ala-Phe-Leu-PyrS2-3Thi-BztA-Gln-NH2] | – | 25 nM | 29500 nM |
| CC(=O)N1CCC[C@]12CC=CCCCC1(CCCC=CCCCOC(=O)N3CC[C@@](C(=O)N[C@@H](Cc4ccsc4)C(=O)N[C@@H](Cc4csc5ccccc45)C(=O)N[C@@H](CCC(N)=O)C(N)=O)(C3)NC(=O)[C@H](CC(C)(C)C)NC(=O)[C@H](Cc3ccccc3)NC(=O)[C@H](C)NC(=O)[C@H](C)NC(=O)[C@H](CN(CC(=O)O)CC(F)(F)F)NC(=O)[C@H](CC(=O)O)NC1=O)NC(=O)[C@H](CC(C)(C)C)NC(=O)[C@H](CC(=O)O)NC2=O (stereo partly drawn) [I-1773, Ac-PL3-Asp-Npg-B5-Asp-TfeGA-Ala-Ala-Phe-Npg-PyrS2-3Thi-BztA-Gln-NH2] | – | 32 nM | 8600 nM |

Continued, values first:

| IC50 [1] | IC50 [2] | IC50 ([1]; absolute IC50) | Compound |
| --- | --- | --- | --- |
| > 20000 nM | 136 nM | – | CC(=O)N1CCC[C@]12CC=CCCCC1(CCCC=CCCCOC(=O)N3CC[C@@](C(=O)N[C@@H](Cc4ccccc4)C(=O)N[C@@H](Cc4csc5ccccc45)C(=O)N[C@@H](Cc4c[nH]cn4)C(N)=O)(C3)NC(=O)[C@H](CC(N)=O)NC(=O)[C@H](Cc3ccccc3)NC(=O)[C@H](C)NC(=O)[C@H](CCCCNC(C)C)NC(=O)[C@H](CCC(N)=O)NC(=O)[C@H](CC(=O)O)NC1=O)NC(=O)[C@H](CC1CCCCC1)NC(=O)[C@H](CC(N)=O)NC2=O (stereo partly drawn) [I-2109, Ac-PL3-Asn-Cha-B5-Asp-Gln-iPrLys-Ala-Phe-Asn-PyrS2-Phe-BztA-His-NH2] |
| > 20000 nM | 116 nM | – | CC(=O)N1CCC[C@]12CC=CCC1(CC=CCCCCCOC(=O)N3CC[C@](C(=O)N[C@@H](Cc4ccsc4)C(=O)N[C@@H](Cc4csc5ccccc45)C(=O)N[C@@H](CCC(N)=O)C(N)=O)(C3)NC(=O)[C@H](CC(C)C)NC(=O)[C@H](Cc3ccccc3)NC(=O)[C@H](C)NC(=O)[C@H](C)NC(=O)[C@H](CC(=O)O)NC(=O)[C@H](CC(=O)O)NC1=O)NC(=O)[C@H](CC(C)(C)C)NC(=O)[C@H](CC(=O)O)NC2=O (single isomer, unassigned) [I-2159, Ac-PL3-Asp-Npg-B3-Asp-Asp-Ala-Ala-Phe-Leu-PyrS4-3Thi-BztA-Gln-NH2] |
| > 20000 nM | 32 nM | – | CC(=O)N1CCC[C@]12CC=CCCCC1(CCCC=CCCCOC(=O)N3CC[C@@](C(=O)N[C@@H](Cc4ccsc4)C(=O)N[C@@H](Cc4csc5ccccc45)C(=O)N[C@@H](CCC(N)=O)C(N)=O)(C3)NC(=O)[C@H](CC(N)=O)NC(=O)[C@H](Cc3cccc(C(=O)O)c3)NC(=O)[C@H](C)NC(=O)[C@H](C)NC(=O)[C@H](CCc3ccc(O)cc3)NC(=O)[C@H](CC(=O)O)NC1=O)NC(=O)[C@H](CC(C)(C)C)NC(=O)[C@H](CC(=O)O)NC2=O (stereo partly drawn) [I-2114, Ac-PL3-Asp-Npg-B5-Asp-hTyr-Ala-Ala-3COOHF-Asn-PyrS2-3Thi-BztA-Gln-NH2] |
| – | 5 nM | 24300 nM | CC(=O)N1CCC[C@]12CC=CCCCC1(CCCC=CCCCOC(=O)N3CC[C@@](C(=O)N[C@@H](Cc4ccsc4)C(=O)N[C@@H](Cc4csc5ccccc45)C(=O)N[C@@H](CCC(N)=O)C(N)=O)(C3)NC(=O)[C@H](CC(C)C)NC(=O)[C@H](Cc3ccccc3)NC(=O)[C@H](C)NC(=O)[C@H](C)NC(=O)[C@H](CN(CC(=O)O)C(=O)c3ccccn3)NC(=O)[C@H](CC(=O)O)NC1=O)NC(=O)[C@H](CC(C)(C)C)NC(=O)[C@H](CC(=O)O)NC2=O (stereo partly drawn) [I-2237, Ac-PL3-Asp-Npg-B5-Asp-[Pic]GA-Ala-Ala-Phe-Leu-PyrS2-3Thi-BztA-Gln-NH2] |
| – | 23 nM | 15300 nM | CC(=O)N1CCC[C@]12CC=CCCCC1(CCCC=CCCCOC(=O)N3CC[C@@](C(=O)N[C@@H](Cc4ccsc4)C(=O)N[C@@H](Cc4csc5ccccc45)C(=O)N[C@@H](CCC(N)=O)C(N)=O)(C3)NC(=O)[C@H](CC(C)C)NC(=O)[C@H](Cc3ccccc3)NC(=O)[C@H](C)NC(=O)[C@H](C)NC(=O)[C@H](CN(CC(=O)O)C(=O)Cc3ccc(C(F)(F)F)cc3)NC(=O)[C@H](CC(=O)O)NC1=O)NC(=O)[C@H](CC(C)(C)C)NC(=O)[C@H](CC(=O)O)NC2=O (stereo partly drawn) [I-2236, Ac-PL3-Asp-Npg-B5-Asp-[4CF3PhAc]GA-Ala-Ala-Phe-Leu-PyrS2-3Thi-BztA-Gln-NH2] |
